Reference: ChEMBL document CHEMBL5325437, “Shifting the selectivity of pyrido[2,3-d]pyrimidin-7(8H)-one inhibitors towards the salt-inducible kinase (SIK) subfamily” (Eur J Med Chem, 2023)
Active and inactive are the calls of the source. The calls are words filed in the database; no cut-off is given here.

Tests used:
[1] = molecular target: Tyrosine-protein kinase ABL1 (Homo sapiens, UniProt P00519); assay: Inhibition of full length NanoLuc fused ABL1 (unknown origin) transfected in HEK293T cells using NanoBRET NanoGlo substrate incubated for 2 hrs in presence of tracer by NanoBRET assay; type: cell-based
[2] = test system: SK-OV-3; assay: Induction of cell cycle arrest in human SK-OV-3 cells assessed as accumulation of cells at S phase at 5 uM incubated for 24 hrs by flow cytometry (reference value: 32%); type: functional
[3] = test system: HCT-116; assay: Cytotoxicity against human HCT-116 cells assessed as decrease in cell viability at 10 uM incubated for 24 hrs by Hoechst-33342 staining high-content imaging analysis; type: toxicity, cell-based; conditions: hct-116, 24 h
[4] = molecular target: T1, Serine/threonine-protein kinase 3 (Homo sapiens) (UniProt Q13188); assay: Binding affinity to recombinant MST2 (unknown origin) assessed as stabilization by measuring change in melting temperature at 10 uM by SYPRO orange dye based differential scanning fluorimetry assay
T1 sequence (whole entry): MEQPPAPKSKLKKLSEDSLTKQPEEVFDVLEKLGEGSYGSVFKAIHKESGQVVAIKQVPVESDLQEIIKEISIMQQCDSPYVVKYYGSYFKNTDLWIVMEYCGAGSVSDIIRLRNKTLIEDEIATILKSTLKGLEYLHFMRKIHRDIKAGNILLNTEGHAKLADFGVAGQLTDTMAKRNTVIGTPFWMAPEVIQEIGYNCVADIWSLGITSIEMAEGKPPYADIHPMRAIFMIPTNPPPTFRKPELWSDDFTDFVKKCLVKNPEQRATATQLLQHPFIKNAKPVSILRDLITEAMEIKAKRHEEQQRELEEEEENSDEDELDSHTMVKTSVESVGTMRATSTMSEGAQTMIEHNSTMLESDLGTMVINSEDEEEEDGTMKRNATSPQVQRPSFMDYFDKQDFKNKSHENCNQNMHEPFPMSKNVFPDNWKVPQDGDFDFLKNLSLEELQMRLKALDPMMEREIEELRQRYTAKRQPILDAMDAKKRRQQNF

[5] = molecular target: Ephrin type-B receptor 3 (Homo sapiens, UniProt P54753); assay: Inhibition of full length NanoLuc fused EPHB3 (unknown origin) transfected in HEK293T cells using NanoBRET NanoGlo substrate incubated for 2 hrs in presence of tracer by NanoBRET assay; type: cell-based
[6] = molecular target: Serine/threonine-protein kinase PAK 1 (Homo sapiens) (UniProt Q13153); assay: Binding affinity to recombinant PAK1 (unknown origin) assessed as stabilization by measuring change in melting temperature at 10 uM by SYPRO orange dye based differential scanning fluorimetry assay
[7] = molecular target: Serine/threonine-protein kinase SIK2 (Homo sapiens) (UniProt Q9H0K1); assay: Inhibition of SIK2 in human SK-OV-3 cells assessed as upregulation of cyclin A expression level at 5 uM incubated for 48 hrs by Western blotting analysis; type: cell-based
[8] = molecular target: Cyclin-G-associated kinase (Homo sapiens) (UniProt O14976); assay: Binding affinity to recombinant GAK (unknown origin) assessed as stabilization by measuring change in melting temperature at 10 uM by SYPRO orange dye based differential scanning fluorimetry assay
[9] = molecular target: Ephrin type-B receptor 1 (Homo sapiens) (UniProt P54762); assay: Binding affinity to recombinant EPHB1 (unknown origin) assessed as stabilization by measuring change in melting temperature at 10 uM by SYPRO orange dye based differential scanning fluorimetry assay
[10] = test system: HCT-116; assay: Cytotoxicity against human HCT-116 cells assessed as appearance of pyknosis nuclei at 1 uM incubated for 80 hrs by Hoechst-33342 staining high-content imaging analysis; type: toxicity, cell-based; conditions: hct-116, 80 h
[11] = molecular target: T2, Ephrin type-A receptor 2 (Homo sapiens, UniProt P29317); assay: Inhibition of full length NanoLuc fused EPHA2 (unknown origin) transfected in HEK293T cells using NanoBRET NanoGlo substrate incubated for 2 hrs in presence of tracer by NanoBRET assay; type: cell-based
[12] = molecular target: Serine/threonine-protein kinase SIK2 (Homo sapiens) (UniProt Q9H0K1); assay: Inhibition of recombinant human GST-tagged SIK2 assessed as downregulation of SIK2 phosphorylation at Ser358 a 5 uM incubated for 30 mins by Western blotting analysis
[13] = molecular target: Serine/threonine-protein kinase SIK2 (Homo sapiens) (UniProt Q9H0K1); assay: Inhibition of SIK2 in human SK-OV-3 cells assessed as downregulation of AKT phosphorylation at Ser473 at 5 uM incubated for 48 hrs by Western blotting analysis; type: cell-based
[14] = molecular target: Mitogen-activated protein kinase 8 (Homo sapiens, UniProt P45983); assay: Inhibition of full length NanoLuc fused JNK1 (unknown origin) transfected in HEK293T cells using NanoBRET NanoGlo substrate incubated for 2 hrs in presence of tracer by NanoBRET assay; type: cell-based
[15] = molecular target: T3, Serine/threonine-protein kinase 4 (Homo sapiens) (UniProt Q13043); assay: Binding affinity to recombinant MST1 (unknown origin) assessed as stabilization by measuring change in melting temperature at 10 uM by SYPRO orange dye based differential scanning fluorimetry assay
T3 sequence (whole entry): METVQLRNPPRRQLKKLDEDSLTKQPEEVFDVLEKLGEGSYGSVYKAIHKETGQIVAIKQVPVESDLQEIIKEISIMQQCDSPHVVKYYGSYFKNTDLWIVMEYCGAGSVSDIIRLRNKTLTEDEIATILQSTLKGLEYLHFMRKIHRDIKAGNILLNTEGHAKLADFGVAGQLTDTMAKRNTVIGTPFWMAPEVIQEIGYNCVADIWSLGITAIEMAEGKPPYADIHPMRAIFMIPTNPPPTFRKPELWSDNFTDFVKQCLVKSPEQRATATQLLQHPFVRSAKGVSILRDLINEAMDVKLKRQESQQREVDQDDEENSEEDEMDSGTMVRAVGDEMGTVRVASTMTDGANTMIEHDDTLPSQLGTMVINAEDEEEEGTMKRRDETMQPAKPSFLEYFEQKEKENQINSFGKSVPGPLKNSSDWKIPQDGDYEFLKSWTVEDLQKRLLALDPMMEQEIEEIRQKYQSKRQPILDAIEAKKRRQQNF

[16] = molecular target: Ephrin type-A receptor 4 (Homo sapiens, UniProt P54764); assay: Binding affinity to recombinant EPHA4 (unknown origin) assessed as stabilization by measuring change in melting temperature at 10 uM by SYPRO orange dye based differential scanning fluorimetry assay
[17] = molecular target: T2, Ephrin type-A receptor 2; assay: Binding affinity to recombinant EPHA2 (unknown origin) assessed as stabilization by measuring change in melting temperature at 10 uM by SYPRO orange dye based differential scanning fluorimetry assay
[18] = molecular target: Serine/threonine-protein kinase SIK2 (Homo sapiens) (UniProt Q9H0K1); assay: Inhibition of SIK2 in human SK-OV-3 cells assessed as decrease in centrosome dissociation in G2 phase at 5 uM incubated for 48 hrs by immunofluorescence assay; type: cell-based
[19] = molecular target: Ephrin type-B receptor 2 (Homo sapiens, UniProt P29323); assay: Inhibition of full length NanoLuc fused EPHB2 (unknown origin) transfected in HEK293T cells using NanoBRET NanoGlo substrate incubated for 2 hrs in presence of tracer by NanoBRET assay; type: cell-based
[20] = molecular target: Ephrin type-A receptor 3 (Homo sapiens, UniProt P29320); assay: Inhibition of full length NanoLuc fused EPHA3 (unknown origin) transfected in HEK293T cells using NanoBRET NanoGlo substrate incubated for 2 hrs in presence of tracer by NanoBRET assay; type: cell-based
Ephrin type-A receptor 3, sequence (P29320 whole entry, the tested form may be a part): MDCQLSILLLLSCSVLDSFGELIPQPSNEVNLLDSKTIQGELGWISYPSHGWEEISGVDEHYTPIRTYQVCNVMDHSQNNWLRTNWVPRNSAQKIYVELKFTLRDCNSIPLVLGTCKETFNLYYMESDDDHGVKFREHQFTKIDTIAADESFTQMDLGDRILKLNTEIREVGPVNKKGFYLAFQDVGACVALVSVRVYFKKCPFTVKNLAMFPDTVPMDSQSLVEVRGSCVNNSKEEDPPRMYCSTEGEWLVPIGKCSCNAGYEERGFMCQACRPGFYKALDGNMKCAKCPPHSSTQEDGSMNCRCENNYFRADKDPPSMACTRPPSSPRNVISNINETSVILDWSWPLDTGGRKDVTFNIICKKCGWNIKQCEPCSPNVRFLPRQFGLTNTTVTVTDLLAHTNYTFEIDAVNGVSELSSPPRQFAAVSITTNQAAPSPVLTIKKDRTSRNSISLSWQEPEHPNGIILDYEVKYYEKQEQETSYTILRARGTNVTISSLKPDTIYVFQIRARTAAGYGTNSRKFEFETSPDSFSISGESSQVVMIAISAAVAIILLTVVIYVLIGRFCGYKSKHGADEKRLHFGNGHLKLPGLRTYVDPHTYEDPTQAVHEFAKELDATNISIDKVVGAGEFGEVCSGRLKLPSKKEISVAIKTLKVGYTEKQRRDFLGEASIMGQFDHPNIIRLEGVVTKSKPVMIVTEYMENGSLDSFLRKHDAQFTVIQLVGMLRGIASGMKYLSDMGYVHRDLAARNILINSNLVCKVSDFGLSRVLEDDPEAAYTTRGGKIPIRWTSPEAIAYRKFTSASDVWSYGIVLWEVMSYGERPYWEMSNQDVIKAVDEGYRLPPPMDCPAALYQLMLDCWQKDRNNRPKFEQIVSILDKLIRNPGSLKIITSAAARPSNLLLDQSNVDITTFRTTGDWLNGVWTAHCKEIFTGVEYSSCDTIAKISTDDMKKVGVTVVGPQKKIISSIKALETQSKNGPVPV

Serine/threonine-protein kinase SIK2 (Homo sapiens), sequence (Q9H0K1 whole entry, looked up, the tested form may be a part): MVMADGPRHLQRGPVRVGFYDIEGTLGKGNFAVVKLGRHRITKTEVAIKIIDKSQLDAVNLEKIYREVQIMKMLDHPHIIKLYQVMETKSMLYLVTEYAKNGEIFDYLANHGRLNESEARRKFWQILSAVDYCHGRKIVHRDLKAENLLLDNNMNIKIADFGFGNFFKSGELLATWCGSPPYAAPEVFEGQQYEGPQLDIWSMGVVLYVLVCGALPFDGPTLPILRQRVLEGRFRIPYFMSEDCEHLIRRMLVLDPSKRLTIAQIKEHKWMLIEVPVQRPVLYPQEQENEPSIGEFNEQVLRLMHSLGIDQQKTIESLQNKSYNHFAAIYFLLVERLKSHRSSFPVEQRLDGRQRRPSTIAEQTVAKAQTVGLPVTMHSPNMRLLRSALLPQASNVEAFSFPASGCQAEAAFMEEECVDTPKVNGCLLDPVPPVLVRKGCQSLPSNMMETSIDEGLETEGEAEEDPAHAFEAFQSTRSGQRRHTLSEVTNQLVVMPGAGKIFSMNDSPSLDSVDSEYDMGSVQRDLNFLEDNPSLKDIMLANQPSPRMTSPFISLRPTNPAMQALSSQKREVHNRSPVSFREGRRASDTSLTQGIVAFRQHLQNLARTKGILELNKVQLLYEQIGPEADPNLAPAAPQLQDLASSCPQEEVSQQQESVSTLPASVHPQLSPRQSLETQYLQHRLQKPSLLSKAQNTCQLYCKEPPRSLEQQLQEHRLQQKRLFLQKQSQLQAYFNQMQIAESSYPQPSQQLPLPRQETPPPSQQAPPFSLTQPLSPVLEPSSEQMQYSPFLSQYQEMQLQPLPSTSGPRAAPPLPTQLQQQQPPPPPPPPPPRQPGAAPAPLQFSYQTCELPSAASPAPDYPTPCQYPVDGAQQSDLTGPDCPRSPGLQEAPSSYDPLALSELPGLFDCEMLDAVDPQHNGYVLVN
T2 sequence (P29317 whole entry, the tested form may be a part): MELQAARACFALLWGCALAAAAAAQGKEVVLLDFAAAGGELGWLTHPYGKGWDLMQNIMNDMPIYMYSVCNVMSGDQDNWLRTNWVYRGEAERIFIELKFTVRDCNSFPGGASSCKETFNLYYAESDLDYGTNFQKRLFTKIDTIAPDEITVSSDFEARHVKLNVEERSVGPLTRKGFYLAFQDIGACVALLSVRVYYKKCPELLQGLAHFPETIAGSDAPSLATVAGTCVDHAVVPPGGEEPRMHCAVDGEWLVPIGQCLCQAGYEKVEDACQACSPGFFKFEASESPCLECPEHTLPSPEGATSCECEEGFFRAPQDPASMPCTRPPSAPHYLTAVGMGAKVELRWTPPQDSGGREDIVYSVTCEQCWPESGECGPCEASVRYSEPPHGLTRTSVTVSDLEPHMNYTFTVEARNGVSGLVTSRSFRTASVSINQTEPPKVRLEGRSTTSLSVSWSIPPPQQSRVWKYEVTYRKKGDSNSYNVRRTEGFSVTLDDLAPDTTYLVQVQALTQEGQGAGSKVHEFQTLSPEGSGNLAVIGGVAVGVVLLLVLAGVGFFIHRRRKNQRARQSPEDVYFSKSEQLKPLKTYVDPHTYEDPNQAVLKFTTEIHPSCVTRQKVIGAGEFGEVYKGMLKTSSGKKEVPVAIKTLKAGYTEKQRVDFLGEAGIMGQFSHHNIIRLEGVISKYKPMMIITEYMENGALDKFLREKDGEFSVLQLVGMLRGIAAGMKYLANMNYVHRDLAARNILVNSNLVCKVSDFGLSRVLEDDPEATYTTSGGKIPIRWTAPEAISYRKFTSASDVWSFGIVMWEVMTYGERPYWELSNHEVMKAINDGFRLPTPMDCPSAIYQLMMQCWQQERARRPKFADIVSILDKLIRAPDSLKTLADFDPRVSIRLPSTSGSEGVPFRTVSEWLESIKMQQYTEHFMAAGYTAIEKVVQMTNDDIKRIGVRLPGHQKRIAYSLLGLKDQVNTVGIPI
Tyrosine-protein kinase ABL1, sequence (P00519 whole entry, the tested form may be a part): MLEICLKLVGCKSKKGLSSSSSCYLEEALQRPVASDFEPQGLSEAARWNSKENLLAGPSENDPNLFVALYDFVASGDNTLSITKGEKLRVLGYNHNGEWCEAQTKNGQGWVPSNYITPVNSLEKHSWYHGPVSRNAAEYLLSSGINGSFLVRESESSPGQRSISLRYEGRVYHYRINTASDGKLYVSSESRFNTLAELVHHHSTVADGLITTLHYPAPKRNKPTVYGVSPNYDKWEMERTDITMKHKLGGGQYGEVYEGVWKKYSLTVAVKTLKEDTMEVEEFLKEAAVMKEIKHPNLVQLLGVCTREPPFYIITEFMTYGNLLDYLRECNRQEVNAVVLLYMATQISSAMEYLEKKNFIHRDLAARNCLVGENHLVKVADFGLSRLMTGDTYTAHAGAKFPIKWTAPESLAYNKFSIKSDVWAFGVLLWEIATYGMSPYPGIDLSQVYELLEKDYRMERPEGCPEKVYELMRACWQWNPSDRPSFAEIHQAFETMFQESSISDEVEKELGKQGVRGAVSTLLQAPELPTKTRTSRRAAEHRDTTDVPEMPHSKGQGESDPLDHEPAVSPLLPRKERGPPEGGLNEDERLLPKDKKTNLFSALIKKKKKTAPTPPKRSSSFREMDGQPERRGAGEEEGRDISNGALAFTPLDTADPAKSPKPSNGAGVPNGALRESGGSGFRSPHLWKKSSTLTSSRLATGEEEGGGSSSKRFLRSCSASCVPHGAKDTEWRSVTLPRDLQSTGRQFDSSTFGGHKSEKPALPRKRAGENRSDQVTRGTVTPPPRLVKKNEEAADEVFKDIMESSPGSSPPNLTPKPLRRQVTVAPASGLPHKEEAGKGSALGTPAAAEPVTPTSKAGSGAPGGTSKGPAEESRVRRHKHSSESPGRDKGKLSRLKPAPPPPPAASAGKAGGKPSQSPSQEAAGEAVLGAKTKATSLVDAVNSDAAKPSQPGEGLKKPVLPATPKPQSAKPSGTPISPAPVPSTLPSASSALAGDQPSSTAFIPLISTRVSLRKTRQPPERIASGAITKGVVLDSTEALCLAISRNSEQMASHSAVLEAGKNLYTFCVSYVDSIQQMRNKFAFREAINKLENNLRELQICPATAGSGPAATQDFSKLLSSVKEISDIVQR
Serine/threonine-protein kinase PAK 1 (Homo sapiens), sequence (Q13153 whole entry): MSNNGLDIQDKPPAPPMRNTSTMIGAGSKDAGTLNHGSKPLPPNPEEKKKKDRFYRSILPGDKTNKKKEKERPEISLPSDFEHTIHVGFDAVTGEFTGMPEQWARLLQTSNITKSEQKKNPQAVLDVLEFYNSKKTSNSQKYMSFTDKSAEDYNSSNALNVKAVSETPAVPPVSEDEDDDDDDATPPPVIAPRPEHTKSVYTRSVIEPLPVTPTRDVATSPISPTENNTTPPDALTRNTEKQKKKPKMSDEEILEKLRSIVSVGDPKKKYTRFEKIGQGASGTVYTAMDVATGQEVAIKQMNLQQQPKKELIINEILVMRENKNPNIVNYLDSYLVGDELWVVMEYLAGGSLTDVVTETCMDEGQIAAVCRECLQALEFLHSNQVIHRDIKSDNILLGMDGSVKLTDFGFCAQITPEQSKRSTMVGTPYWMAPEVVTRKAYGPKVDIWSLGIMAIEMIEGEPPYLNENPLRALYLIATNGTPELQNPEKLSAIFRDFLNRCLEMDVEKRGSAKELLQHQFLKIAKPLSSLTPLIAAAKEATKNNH
Mitogen-activated protein kinase 8, sequence (P45983 whole entry, the tested form may be a part): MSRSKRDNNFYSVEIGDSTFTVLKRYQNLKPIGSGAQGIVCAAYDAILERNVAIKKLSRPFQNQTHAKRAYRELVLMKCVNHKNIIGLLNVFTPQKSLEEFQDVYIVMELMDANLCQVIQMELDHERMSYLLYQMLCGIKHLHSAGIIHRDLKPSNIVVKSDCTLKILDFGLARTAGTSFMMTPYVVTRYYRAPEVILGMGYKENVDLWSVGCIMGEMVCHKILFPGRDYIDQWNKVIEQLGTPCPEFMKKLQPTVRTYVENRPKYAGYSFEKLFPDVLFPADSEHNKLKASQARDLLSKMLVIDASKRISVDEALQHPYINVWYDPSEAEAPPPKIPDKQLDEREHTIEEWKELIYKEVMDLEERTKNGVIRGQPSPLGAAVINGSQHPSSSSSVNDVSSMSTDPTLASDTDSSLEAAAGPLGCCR

CNc1ncc2cc(-c3cc(F)ccc3F)c(=O)n(CCCCN)c2n1
IC50 [1]: 28.1 µM
Activity [2]: 19%
Activity [3]: Toxic
ΔTm [4]: 0.6 °C
IC50 [5]: 18.3 µM
ΔTm [6]: 0 °C
inhibition [7]: Active
ΔTm [8]: 5.9 °C
ΔTm [9]: 7 °C
Activity [10]: Toxic
IC50 [11]: 2.1 µM
inhibition [12]: Active
inhibition [13]: Active
IC50 [14]: 23.2 µM
ΔTm [15]: 0.9 °C
ΔTm [16]: 5.5 °C
ΔTm [17]: 8.9 °C
inhibition [18]: Active
IC50 [19]: 22.6 µM
IC50 [20]: 2.1 µM
